The subject of experiment [1] is HIV. To be noted: 150 to 225 mg (6 to 9 tablets) per day, asymptomatic carriers (AC); cited from earlier work.
For experiment [2], the system named is MCP-1. Description: MCP-1 production by peripheral blood mononuclear cells from burn patients (ELISA). Format: cell-based, human. To be noted: 100 μg/ml, 24 hours, FIG. 2. As to the method:
Experimental Method Peripheral blood was collected from burn patients (third-degree burns covering 45–78% of the body surface), and peripheral blood mononuclear cells were isolated with Ficoll-Hypaque. 1×10^6 cells/ml of the peripheral blood mononuclear cells were stimulated for 24 hours with 100 μg/ml of glycyrrhizin. Furthermore, mononuclear cells from healthy subjects were cultured under the same conditions for the control. The amount of MCP-1 in the culture supernatant was measured with the Human MCP-1 BD OptEIA ELISA Kit.
(ELISA stands for enzyme-linked immunosorbent assay.)

Experiment [3] relates to HSV-1. The experiment can be described thus: Sensitivity to HSV-1 infection in burn mice. Format: in vivo. As to the method: Experimental Method One day after subjecting normal mice and MCP-1 knockout mice to third degree burns over 15% of their body surface area, the animals were intraperitoneally infected with HSV-1 in an amount of 1×10^1 to 1×10^6 pfu/kg body weight. For the control, normal mice were infected with HSV-1 under the same conditions. In addition, MCP-1 (50 ng/mouse) was administered subcutaneously to normal mice 2 hours before infection and 12 and 24 hours after infection. Anti-MCP-1 monoclonal antibody (10 μg/mouse) was administered subcutaneously to the burn mice 2 hours before infection and 12 and 24 hours after infection.

For experiment [4], the system named is MCP-1. Description: MCP-1 production by IL-10-stimulated peripheral blood mononuclear cells (ELISA). Type of experiment: cell-based, human. To be noted: PBMC from healthy individuals, 20 ng/ml IL-10, compound 100 μg/ml, 24 hours, FIG. 1. As to the method: Peripheral blood was collected from health individuals and the fraction containing peripheral blood mononuclear cells (PBMC) was isolated with Ficoll-Hypaque. Monocytes were inoculated into each well of a 96-well flat-bottom microtiter plate at a concentration of 1×10^6 cells/ml. RPMI1640 medium containing 10% FCS and antibiotics (penicillin and streptomycin) was used for culturing. The cells were cultured using an incubator maintained at a temperature of 37° C. and CO2 concentration of 5%. The cells were stimulated by addition of 20 ng/ml of IL-10 (acquired from PeproTech) to each well, and a solution of glycyrrhizin or its derivatives was added at a concentration of 100 μg/ml to all wells except the control well, after which culturing was continued for 24 hours. Following addition of glycyrrhizin, the culture supernatant was recovered and the amount of MCP-1 in the supernatant was quantified by ELISA. A commercially available kit (trade name: Human MCP-1 BD OptEIA ELISA Kit) was used for ELISA.

In experiment [5] the test system is HIV. To be noted: reported in recent years; cited from earlier work.
For experiment [6], the system named is MCP-1. Description: MCP-1 production by peripheral blood mononuclear cells from AIDS patients (ELISA). Format: cell-based, human. To be noted: 0.1 to 100 μg/ml, 24 hours, FIG. 3. On the procedure:
Peripheral blood was collected from AIDS patients and the fraction containing peripheral blood mononuclear cells was isolated using Ficoll-Hypaque. Mononuclear cells were inoculated into each well of a 96-well flat-bottom microtiter plate at a concentration of 1×10^6 cells/ml. The medium was the same as that used in Example 1. The cells were cultured using an incubator maintained at a temperature of 37° C. and CO2 concentration of 5%.
Glycyrrhizin solution was added to each well except the control well at a final concentration of 0.1 to 100 μg/ml followed by culturing for 24 hours.
Following addition of glycyrrhizin, the culture supernatant was recovered and the amount of MCP-1 in the supernatant was quantified by ELISA. A commercially available kit (trade name: Human MCP-1 BD OptEIA ELISA Kit) was used for ELISA.

The values that follow come from patent publication US7015202B2, “Use of glycyrrhizin and its derivatives as MCP-1 production inhibitors” (Minophagen Pharmaceutical Co., Ltd., priority 2002, dated 2006).

Some results are limits rather than exact numbers.

Turning to `CC1(C)[C@@H](O[C@H]2O[C@H](C(=O)O)[C@@H](O)[C@H](O)[C@H]2O[C@@H]2O[C@H](C(=O)O)[C@@H](O)[C@H](O)[C@H]2O)CC[C@]2(C)[C@H]3C(=O)C=C4[C@@H]5C[C@@](C)(C(=O)O)CC[C@]5(C)CC[C@@]4(C)[C@]3(C)CC[C@@H]12.N` [glycyrrhizin, monoammonium glycyrrhizinate], the “survival without the onset of AIDS” value in experiment [1] was at least 10 years. In addition, the “production of MCP-1 by mononuclear cells from burn patients” value in experiment [2] is listed as “effectively inhibited the production of MCP-1”. In experiment [3] (burn mice (third degree burns, 15% of body surface), HSV-1 intraperitoneal, FIG. 4), the “infection sensitivity to HSV-1 infection” value is recorded as “recover to the same level as normal mice”. In addition, the “production of MCP-1 induced by IL-10” value in experiment [4] is recorded as “inhibiting the production of MCP-1 induced by IL-10”. Further, the “intracellular growth of HIV” value in experiment [5] is “inhibits the intracellular growth of HIV”. For the same molecule, in experiment [6], the “production of MCP-1 by mononuclear cells from AIDS patients” value is “production of MCP-1 was found to be inhibited”.

With “MCP-1: monocyte chemoattractant protein-1, a CC chemokine composed of 76 amino acids”, in experiment [3] (normal mice dosed MCP-1 50 ng/mouse subcutaneously 2 hours before and 12 and 24 hours after infection), the “infection sensitivity to HSV-1 infection” value was 100 times higher as compared with.
